Assay results from patent publication US10584133B2, “Thienopyrimidinone compounds” (BioTheryX, Inc., priority 2018, dated 2020).

What was measured:
GSPT1 = GSPT1 degradation assay (Western blot, MV-4-11 cells); format: cell-based; conditions: 6-8 hours
Procedure: (§1) MV-4-11 cells were grown in RPMI 1640 media supplemented with 10% fetal bovine serum, streptomycin and penicillin.
(§2) Cells were cultured at approximately 10^6 cells per mL and incubated in DMSO or the indicated compounds for 6-8 hours. Whole cell extracts were prepared using RIPA buffer according to manufacturer's protocol (Pierce). Briefly, 3×10^6 cells were washed once in PBS, the cell pellets were resuspended in RIPA buffer and allowed to incubate for 15 minutes on ice. Cells debris was removed by centrifugation and the cleared whole cell lysates were transferred to new tubes for further analysis.
(§3) For Western blot analysis, whole cell protein extracts were separated on 4-12% SDS-polyacrylamide gels, transferred to nitrocellulose and probed with the indicated primary antibodies. Membranes were subsequently washed and probed with the appropriate IRDye secondary antibodies (LI-COR). The signal was detected using the Odyssey Imaging System (LI-COR).
(§4) The following antibodies were used in these studies: Anti-eRF3/GSPT1: Abcam, ab126090 (Cambridge, Mass.); Anti-Ikaros: Abcam, ab191394 (Cambridge, Mass.); Anti-CK1α: Abcam, ab108296 (Cambridge, Mass.); Anti-PDE6D: Santa Cruz Biotechnology, sc-166854 (Dallas, Tex.); β-actin (8H10D10) mouse monoclonal antibody: Cell Signaling Technology, #3700 (Danvers, Mass.); IRDye 680RD Goat anti-rabbit antibody: LI-COR, 926-68071 (Lincoln, Nebr.); IRDye 800CW Goat anti-mouse antibody: LI-COR, 926-32210 (Lincoln, Nebr.).

IKAROS = biological target: T1, IKAROS (Homo sapiens, UniProt Q13422+Q96SW2); assay: IKAROS degradation assay (Western blot, MV-4-11 cells); format: cell-based; conditions: 6-8 hours
T1 construct: endogenous in cells; host or cells: MV-4-11
Procedure: as §1, §2, §3, §4

PDE6D = biological target: T2, PDE6D (Homo sapiens, UniProt O43924+Q96SW2); assay: PDE6 degradation assay (Western blot, MV-4-11 cells); format: cell-based; conditions: 6-8 hours
T2 construct: Whole cell extracts were prepared using RIPA buffer; endogenous in cells; host or cells: MV-4-11
Procedure: as §1, §2, §3, §4

MV-4-11 cells = assay: MV-4-11 cell viability assay (CellTiter-Glo); format: cell-based; conditions: 3 days
Procedure: MV-4-11 cells were cultured in RPMI 1640 media supplemented with 10% fetal bovine serum, streptomycin and penicillin, and were plated in white walled 96-well plates at 2500 cells/well. Cells were incubated in DMSO (control) or the indicated compounds for 3 days at 37° C. and 5% CO2. Following the incubation period, 100 μL of CellTiterGlow (CTG) reagent (CellTiter-Glo® Luminescent Cell Viability Assay, Promega (Madison, Wis.)) was added to each well. Following a 10 minutes incubation with shaking, luminescence was measured using the EnVision Multimode plate reader.

CK1α = biological target: T3, CK1α (Homo sapiens, UniProt P48729+Q96SW2); assay: CK1α degradation assay (Western blot, MV-4-11 cells); format: cell-based; conditions: 6-8 hours
T3 construct: Whole cell extracts were prepared using RIPA buffer; endogenous in cells; host or cells: MV-4-11
Procedure: as §1, §2, §3, §4

Helios = biological target: T4, Helios (Homo sapiens, UniProt Q96SW2+Q9UKS7); assay: Helios assay (Western blot degradation, MV-4-11 cells); format: cell-based; conditions: 6-8 hours
T4 construct: Whole cell extracts were prepared using RIPA buffer; endogenous in cells; host or cells: MV-4-11
Procedure: as §1, §2, §3, §4

IL-2 = IL-2 in anti-CD3 stimulated PBMCs (Mesoscale); format: cell-based, human; conditions: fold difference from DMSO control, 24 h
Procedure: For the IL-2 analysis, 96 well plates were precoated with 1 μg/mL anti-human CD3 antibody (OKT3, eBioscience Inc., San Diego, Calif.). After washing with PBS, Compound 12 was added (50 μL/well) followed by PBMCs diluted at 3-4 million cells/mL (150 μL/well). Plates were incubated for 24 h and the supernatants collected for Mesoscale IL-2 analysis. IL-2 activity is measured as fold difference from the DMSO control.

IL-6 = IL-6 in LPS-induced PBMCs / CD14+ monocytes (Meso Scale); format: cell-based; conditions: LPS 100 ng/mL, 18-24 h
Procedure: (§5) Either frozen primary blood mononuclear cells (PBMCs) or frozen CD14+ mobilized peripheral blood monocytes were purchased from AllCells (PB003F, Normal Peripheral Blood MNC (Alameda, Calif.)). Cells were quick thawed, washed 1-time with RPMI-1640 (10% FBS/1% Pen-Strep) and plated in 96 well plates at 200,000 cells per well. Cells were pretreated with DMSO only or Compound 12 for 1 h and then induced with 100 ng/mL lipopolysaccharide (LPS) for 18-24 h. The supernatant was analyzed for IL-1β, IL-6, and TNFα, using Meso Scale assay according to manufacturer's protocol. The negative control wells were treated with DMSO.

IL-1β = IL-1β in LPS-induced PBMCs / CD14+ monocytes (Meso Scale); format: cell-based; conditions: LPS 100 ng/mL, 18-24 h
Procedure: as §5

TNFα = TNFα in LPS-induced PBMCs / CD14+ monocytes (Meso Scale); format: cell-based; conditions: LPS 100 ng/mL, 18-24 h
Procedure: as §5

T3 sequence (P48729 whole entry): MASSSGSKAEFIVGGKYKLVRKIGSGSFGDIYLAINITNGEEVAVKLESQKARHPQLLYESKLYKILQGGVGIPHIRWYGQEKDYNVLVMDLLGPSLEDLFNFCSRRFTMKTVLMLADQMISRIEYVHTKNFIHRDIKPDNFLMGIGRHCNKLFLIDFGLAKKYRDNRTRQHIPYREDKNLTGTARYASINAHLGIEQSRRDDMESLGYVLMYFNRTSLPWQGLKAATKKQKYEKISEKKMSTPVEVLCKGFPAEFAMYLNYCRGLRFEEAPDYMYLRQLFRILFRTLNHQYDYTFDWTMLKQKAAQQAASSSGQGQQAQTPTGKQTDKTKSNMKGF
T3 sequence (Q96SW2 whole entry): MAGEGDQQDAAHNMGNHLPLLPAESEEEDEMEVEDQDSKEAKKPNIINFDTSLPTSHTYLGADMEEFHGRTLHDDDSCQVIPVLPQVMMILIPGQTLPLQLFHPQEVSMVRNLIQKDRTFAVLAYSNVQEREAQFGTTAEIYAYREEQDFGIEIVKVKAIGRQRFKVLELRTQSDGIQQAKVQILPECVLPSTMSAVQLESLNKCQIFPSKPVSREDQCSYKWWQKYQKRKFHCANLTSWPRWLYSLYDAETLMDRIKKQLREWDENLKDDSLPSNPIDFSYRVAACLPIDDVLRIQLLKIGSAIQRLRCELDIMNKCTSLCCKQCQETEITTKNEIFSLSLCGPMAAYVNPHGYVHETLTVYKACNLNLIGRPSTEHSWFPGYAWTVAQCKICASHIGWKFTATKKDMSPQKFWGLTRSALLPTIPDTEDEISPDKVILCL
T3 sequence (Q16531 whole entry partner): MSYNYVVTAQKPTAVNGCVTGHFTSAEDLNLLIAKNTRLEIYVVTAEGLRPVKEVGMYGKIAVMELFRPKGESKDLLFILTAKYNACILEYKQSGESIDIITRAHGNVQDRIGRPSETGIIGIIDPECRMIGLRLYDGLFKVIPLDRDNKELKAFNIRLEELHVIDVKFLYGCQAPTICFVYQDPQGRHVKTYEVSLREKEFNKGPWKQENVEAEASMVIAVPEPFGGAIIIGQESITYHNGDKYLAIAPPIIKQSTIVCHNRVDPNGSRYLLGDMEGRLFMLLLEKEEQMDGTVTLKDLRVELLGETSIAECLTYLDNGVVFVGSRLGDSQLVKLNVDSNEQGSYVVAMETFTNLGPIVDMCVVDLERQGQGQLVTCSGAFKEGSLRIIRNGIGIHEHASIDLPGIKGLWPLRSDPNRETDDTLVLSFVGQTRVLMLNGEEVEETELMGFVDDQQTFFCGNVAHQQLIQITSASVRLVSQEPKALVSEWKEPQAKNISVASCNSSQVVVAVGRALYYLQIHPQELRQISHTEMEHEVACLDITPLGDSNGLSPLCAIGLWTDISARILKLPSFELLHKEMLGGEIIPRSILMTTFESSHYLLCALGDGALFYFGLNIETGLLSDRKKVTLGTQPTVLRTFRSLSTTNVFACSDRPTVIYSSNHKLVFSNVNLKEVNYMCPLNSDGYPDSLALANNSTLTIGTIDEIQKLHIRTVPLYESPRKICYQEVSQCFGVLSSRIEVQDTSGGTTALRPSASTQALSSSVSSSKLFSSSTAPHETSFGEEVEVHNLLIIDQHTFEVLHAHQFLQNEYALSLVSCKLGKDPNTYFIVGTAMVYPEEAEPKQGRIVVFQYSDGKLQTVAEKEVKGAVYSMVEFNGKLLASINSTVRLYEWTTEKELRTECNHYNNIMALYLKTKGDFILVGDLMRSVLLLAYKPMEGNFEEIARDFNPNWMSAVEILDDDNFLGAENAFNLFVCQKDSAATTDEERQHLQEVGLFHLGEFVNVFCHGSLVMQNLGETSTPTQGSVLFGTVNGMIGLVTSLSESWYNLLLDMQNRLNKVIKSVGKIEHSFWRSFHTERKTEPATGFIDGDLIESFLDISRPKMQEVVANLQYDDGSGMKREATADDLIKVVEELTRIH
T1 sequence (Q13422 whole entry): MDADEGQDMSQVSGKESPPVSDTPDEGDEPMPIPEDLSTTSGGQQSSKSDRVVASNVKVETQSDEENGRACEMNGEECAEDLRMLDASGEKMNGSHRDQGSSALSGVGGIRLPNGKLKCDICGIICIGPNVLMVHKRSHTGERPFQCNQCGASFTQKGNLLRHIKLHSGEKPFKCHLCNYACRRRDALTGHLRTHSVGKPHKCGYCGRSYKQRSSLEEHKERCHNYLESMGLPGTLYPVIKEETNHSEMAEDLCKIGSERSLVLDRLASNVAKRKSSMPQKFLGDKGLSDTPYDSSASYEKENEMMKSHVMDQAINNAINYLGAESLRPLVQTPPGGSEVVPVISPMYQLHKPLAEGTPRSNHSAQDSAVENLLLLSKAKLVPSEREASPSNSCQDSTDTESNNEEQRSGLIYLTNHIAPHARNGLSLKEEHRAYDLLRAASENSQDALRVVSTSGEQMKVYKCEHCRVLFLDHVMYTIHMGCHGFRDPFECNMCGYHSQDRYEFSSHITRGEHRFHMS
T1 sequence (Q96SW2 whole entry): as the sequence (Q96SW2 whole entry) above
T1 sequence (Q16531 whole entry partner): as the sequence (Q16531 whole entry partner) above
T2 sequence (O43924 whole entry): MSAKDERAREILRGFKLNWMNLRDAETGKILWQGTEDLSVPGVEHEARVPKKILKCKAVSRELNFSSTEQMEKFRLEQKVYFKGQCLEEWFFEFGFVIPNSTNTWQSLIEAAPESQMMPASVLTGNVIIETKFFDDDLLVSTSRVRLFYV
T2 sequence (Q96SW2 whole entry): as the sequence (Q96SW2 whole entry) above
T2 sequence (Q16531 whole entry partner): as the sequence (Q16531 whole entry partner) above
T4 sequence (Q9UKS7 whole entry): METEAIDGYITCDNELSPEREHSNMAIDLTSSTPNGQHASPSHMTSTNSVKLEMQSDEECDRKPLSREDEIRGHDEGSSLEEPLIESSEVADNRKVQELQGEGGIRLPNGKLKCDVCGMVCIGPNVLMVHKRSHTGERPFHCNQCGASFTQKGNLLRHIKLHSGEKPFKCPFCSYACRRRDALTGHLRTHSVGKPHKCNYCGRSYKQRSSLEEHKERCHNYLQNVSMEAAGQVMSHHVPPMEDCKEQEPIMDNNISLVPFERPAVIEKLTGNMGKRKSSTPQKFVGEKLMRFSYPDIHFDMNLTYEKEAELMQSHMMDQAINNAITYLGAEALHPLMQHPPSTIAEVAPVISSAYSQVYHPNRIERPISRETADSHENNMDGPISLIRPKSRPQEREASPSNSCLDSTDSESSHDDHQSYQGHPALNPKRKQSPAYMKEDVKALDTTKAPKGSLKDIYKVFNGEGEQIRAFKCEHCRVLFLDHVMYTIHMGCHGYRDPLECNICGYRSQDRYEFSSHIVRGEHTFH
T4 sequence (Q96SW2 whole entry): as the sequence (Q96SW2 whole entry) above
T4 sequence (Q16531 whole entry partner): as the sequence (Q16531 whole entry partner) above

| IKAROS % Degradation at 15 μM (IKAROS) [%] | IKAROS % Degradation at 30 μM (IKAROS) [%] | PDE6D % Degradation at 15 μM (PDE6D) [%] | PDE6D % Degradation at 30 μM (PDE6D) [%] | CK1α % Degradation at 15 μM (CK1α) [%] | CK1α % Degradation at 30 μM (CK1α) [%] | Structure (SMILES) | MV-4-11 Cell Viability % DMSO at 15 μM (MV-4-11 cells) [% DMSO] | MV-4-11 Cell Viability % DMSO at 30 μM (MV-4-11 cells) [% DMSO] | further results |
| --- | --- | --- | --- | --- | --- | --- | --- | --- | --- |
| 0 | 7 | 0 | 24 | – | – | Cc1nc2cscc2c(=O)n1C1CCC(=O)NC1=O (stereo not drawn) [Compound 2, 3-(2-methyl-4-oxothieno[3,4-d]pyrimidin-3(4H)-yl)piperidine-2,6-dione] | – | – | – |
| – | – | 49 | 75 | – | – | Cc1nc2cc(Br)sc2c(=O)n1C1CCC(=O)NC1=O (stereo not drawn) [Compound 4, 3-(6-bromo-2-methyl-4-oxothieno[3,2-d]pyrimidin-3(4H)-yl)piperidine-2,6-dione] | 100 | 97 | – |
| – | – | 0 | 15 | – | – | Cc1nc2scc(Br)c2c(=O)n1C1CCC(=O)NC1=O (stereo not drawn) [Compound 5, 3-(5-bromo-2-methyl-4-oxothieno[2,3-d]pyrimidin-3(4H)-yl)piperidine-2,6-dione] | – | – | – |
| – | – | – | – | 8 | 0 | Cc1nc2sc(Br)cc2c(=O)n1C1CCC(=O)NC1=O (stereo not drawn) [Compound 8, 3-(6-bromo-2-methyl-4-oxothieno[2,3-d]pyrimidin-3(4H)-yl)piperidine-2,6-dione] | – | – | – |
| – | – | – | – | 24 | 12 | Cc1nc2c(N)csc2c(=O)n1C1CCC(=O)NC1=O (stereo not drawn) [Compound 9, 3-(7-amino-2-methyl-4-oxothieno[3,2-d]pyrimidin-3(4H)-yl)piperidine-2,6-dione] | – | – | – |
| 49 | 53 | – | – | – | – | Cc1nc2scc(N)c2c(=O)n1C1CCC(=O)NC1=O (stereo not drawn) [Compound 10, 3-(5-amino-2-methyl-4-oxothieno[2,3-d]pyrimidin-3(4H)-yl)piperidine-2,6-dione] | – | – | Helios % Degradation at 15 μM (Helios): 0%; Helios % Degradation at 30 μM (Helios): 16% |

The remaining lines, values behind:

| Structure (SMILES) | IKAROS % Degradation at 15 μM (IKAROS) [%] | IKAROS % Degradation at 30 μM (IKAROS) [%] | PDE6D % Degradation at 15 μM (PDE6D) [%] | PDE6D % Degradation at 30 μM (PDE6D) [%] | CK1α % Degradation at 15 μM (CK1α) [%] | CK1α % Degradation at 30 μM (CK1α) [%] | MV-4-11 Cell Viability % DMSO at 15 μM (MV-4-11 cells) [% DMSO] | MV-4-11 Cell Viability % DMSO at 30 μM (MV-4-11 cells) [% DMSO] | further results |
| --- | --- | --- | --- | --- | --- | --- | --- | --- | --- |
| Cc1nc2ccsc2c(=O)n1C1CCC(=O)NC1=O (stereo not drawn) [Compound 1, 3-(2-methyl-4-oxothieno[3,2-d]pyrimidin-3(4H)-yl)piperidine-2,6-dione] | – | – | – | – | – | – | – | – | GSPT1 % Degradation at 15 μM (GSPT1): 23%; GSPT1 % Degradation at 30 μM (GSPT1): 0% |
| Cc1nc2sccc2c(=O)n1C1CCC(=O)NC1=O (stereo not drawn) [Compound 3, 3-(2-methyl-4-oxothieno[2,3-d]pyrimidin-3(4H)-yl)piperidine-2,6-dione] | – | – | 0 | 10 | – | – | 97 | 94 | – |
| Cc1cc2c(=O)n(C3CCC(=O)NC3=O)c(C)nc2s1 (stereo not drawn) [Compound 6, 3-(2,6-dimethyl-4-oxothieno[2,3-d]pyrimidin-3(4H)-yl)piperidine-2,6-dione] | – | – | – | – | – | – | 89 | 91 | – |
| Cc1sc2nc(C)n(C3CCC(=O)NC3=O)c(=O)c2c1N (stereo not drawn) [Compound 7, 3-(5-amino-2,6-dimethyl-4-oxothieno[2,3-d]pyrimidin-3(4H)-yl)piperidine-2,6-dione] | – | – | – | – | – | – | 97 | 96 | – |
| Cc1nc2c(CN)scc2c(=O)n1C1CCC(=O)NC1=O.O=C(O)C(F)(F)F (stereo not drawn) [Compound 11, 3-(7-(aminomethyl)-2-methyl-4-oxothieno[3,4-d]pyrimidin-3(4H)-yl)piperidine-2,6-dione 2,2,2-trifluoroacetate] | – | – | 30 | 41 | 17 | 0 | 94 | 78 | – |
| Cc1ccc(NC(=O)NCc2scc3c(=O)n(C4CCC(=O)NC4=O)c(C)nc23)cc1Cl (stereo not drawn) [Compound 12, 1-(3-chloro-4-methylphenyl)-3-((3-(2,6-dioxopiperidin-3-yl)-2-methyl-4-oxo-3,4-dihydrothieno[3,4-d]pyrimidin-7-yl)methyl)urea] | 28 | 60 | 0 | 21 | 16 | 45 | 0 | 0 | IL-2 Fold Change (IL-2; 1 μM): 3.6 Fold Change; IL-2 Fold Change (IL-2; 10 μM): 3.1 Fold Change; inhibition at 1 µM (IL-6; 1 μM): 17%; inhibition at 10 µM (IL-6; 10 μM): 53%; inhibition at 1 µM (IL-1β; 1 μM): 80%; inhibition at 10 µM (IL-1β; 10 μM): 92%; GSPT1 % Degradation at 15 μM (GSPT1): 96%; GSPT1 % Degradation at 30 μM (GSPT1): 97%; inhibition at 1 µM (TNFα; 1 μM): 79%; inhibition at 10 µM (TNFα; 10 μM): 91%; Helios % Degradation at 15 μM (Helios): 49%; Helios % Degradation at 30 μM (Helios): 69% |
| Cc1ccc(NC(=O)NCc2cc3nc(C)n(C4CCC(=O)NC4=O)c(=O)c3s2)cc1Cl (stereo not drawn) [Compound 13, 1-(3-chloro-4-methylphenyl)-3-((3-(2,6-dioxopiperidin-3-yl)-2-methyl-4-oxo-3,4-dihydrothieno[3,2-d]pyrimidin-6-yl)methyl)urea] | 65 | 55 | 4 | 9 | 31 | 35 | 2 | 0.73 | GSPT1 % Degradation at 15 μM (GSPT1): 87%; GSPT1 % Degradation at 30 μM (GSPT1): 87%; Helios % Degradation at 15 μM (Helios): 50%; Helios % Degradation at 30 μM (Helios): 21% |
